Test results published in US11046659B2, “1,2,3-triazole derivative and insecticide and acaricide containing said derivative as active ingredient” (HOKKO CHEMICAL INDUSTRY CO., LTD., priority 2015, dated 2021).

Tested on: Tetranychus urticae
Test: Tetranychus urticae control test
Format: in vivo
Conditions: diluted emulsifiable concentrate 500 ppm sprayed on bean seedlings; female adults; eight days after the treatment; 25° C.
Method: Test Example-4: Tetranychus urticae Control Test
Ten female adults of Tetranychus urticae were released on each of bean seedlings grown in a plastic cup. One day after the release, the bean seedlings were placed on a turntable, and 30 mL of a diluted emulsifiable concentrate (500 ppm) prepared according to Formulation Example 3 was uniformly sprayed thereon by means of a spray gun. After the treatment, the seedlings were placed in a constant temperature chamber at 25° C. (with lighting for 16 hours). Eight days after the treatment, the number of surviving parasitic insects was investigated, and the preventive value (%) was calculated according to the following calculating formula (b). Test was conducted in duplicate. Preventive value (%)={1−(number of parasitic insects on investigation day in treatment plot/number of parasitic insects on investigation day in non-treatment plot)}×100 Formula (b): […]

## CCS(=O)(=O)c1cc(C(F)(F)F)cnc1-n1cc(-c2ccc(C(F)(F)F)cc2)nn1 [1-834]
  preventive value: ≥ 80%
